One data set has as its system Echinochloa crus-galli. Nature of the data set: Pre-emergence herbicidal inhibition assay, Petri dish test, EC. It is filed as in vivo. The conditions noted are these: for EC50: Echinochloa crus-galli, 168 h; for Relative activity ratio (EC root) / Relative activity ratio (EC stalk): relative to FOS. The procedure:
(§1) The pre-emergence activity of the compounds against monocot Echinochloa crus-galli (EC) and dicot Brassica napus L. (BN) was evaluated using the standard Petri dish test. The compounds were dissolved in DMF, emulsified with Tween-80 and diluted with water to form stock solutions, each of which was further diluted to a gradient of 100, 50, 25, 10 and 1 mg/L for test. The test solutions were added to Petri dishes lined with a filter paper, on which 10 seeds of EC and BN were placed. After cultured in an intelligent climate chamber with a humidity of 65% at 26 °C for 7 days, the corresponding EC50 values were calculated.

Data set [1] concerns the target recombinant E. coli DXR (EcDXR) (Escherichia coli, UniProt P45568). Description: biochemical. The conditions noted are these: read-out: InR (%) on DXR enzyme.
The next data set relates to Arabidopsis thaliana. Nature of the data set: Arabidopsis growth inhibition assay (24-well plates, green channel pixel value). The following applies: Arabidopsis thaliana, 240 h; for EC50: read-out: EC50 against Arabidopsis growth; for pest or weed control at 100 µg/mL: read-out: InR (%) against Arabidopsis.
The next data set concerns Brassica napus L. Description: Pre-emergence herbicidal inhibition assay, Petri dish test, BN. The data set is classed as in vivo. The following applies: for EC50: Brassica napus, 168 h; for Relative activity ratio (BN root) / Relative activity ratio (BN stalk): relative to FOS. As for the experimental part: as §1
The mark [2] stands for this setting: root, 7 days, read-out: EC50 EC Root.
The mark [3] stands for this setting: stalk, 7 days, read-out: EC50 EC Stalk.
The mark [4] stands for this setting: root, 7 days, read-out: EC50 BN Root.
Setting [5] is: stalk, 7 days, read-out: EC50 BN Stalk.

Values after ≈ are worked out from the molar mass of the structure shown. Where two headings read alike, the source gives them in different places.

recombinant E. coli DXR (EcDXR), sequence (P45568 whole entry): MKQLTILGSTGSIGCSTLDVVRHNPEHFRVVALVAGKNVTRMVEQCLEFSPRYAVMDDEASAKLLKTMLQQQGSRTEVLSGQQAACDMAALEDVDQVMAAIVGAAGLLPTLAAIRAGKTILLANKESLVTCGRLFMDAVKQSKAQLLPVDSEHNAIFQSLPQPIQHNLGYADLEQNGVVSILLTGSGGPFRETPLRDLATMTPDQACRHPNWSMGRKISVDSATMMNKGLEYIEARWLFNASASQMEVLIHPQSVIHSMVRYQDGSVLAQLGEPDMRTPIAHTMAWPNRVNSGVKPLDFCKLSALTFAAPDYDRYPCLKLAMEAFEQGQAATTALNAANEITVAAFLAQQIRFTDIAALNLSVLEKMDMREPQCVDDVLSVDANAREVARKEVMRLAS

As to `Cc1noc(C)c1CCP(=O)(O)O` [Compound 6e], the melting point was over 250 °C. Also, in the data set with Echinochloa crus-galli (read-out: EC50 EC Root), the concentration giving a half-maximal response (EC50) was over 100 µg/mL. The EC50 in the data set on Echinochloa crus-galli (read-out: EC50 EC Stalk) is 54.1 µg/mL (≈ 264 µM). For the same molecule, the inhibition at 100 µM in data set [1] was determined as 12.1%. For the same molecule, in the data set with Arabidopsis thaliana, the EC50 is over 100 µg/mL and the pest or weed control at 100 µg/mL is 12.3%. Also, the EC50 in the data set on Brassica napus L. (read-out: EC50 BN Root) was over 100 µg/mL. For the same molecule, the EC50 with Brassica napus L. (read-out: EC50 BN Stalk) came out at 68.4 µg/mL (≈ 333 µM).
For `CCc1n[nH]c(CC)c1CC(P(=O)(O)O)P(=O)(O)O` [Compound 12h], the melting point is over 250 °C. Moreover, the EC50 in the data set with Echinochloa crus-galli (setting [2]) is 44.2 µg/mL (≈ 142 µM). Further, the EC50 in the data set with Echinochloa crus-galli (setting [3]) amounted to 31.1 µg/mL (≈ 99.6 µM). Moreover, the inhibition at 100 µM in data set [1] was 2.3%. In the data set on Arabidopsis thaliana, the EC50 is over 100 µg/mL and the pest or weed control at 100 µg/mL was 41.2%. For the same molecule, in the data set on Brassica napus L. (setting [4]), the EC50 was 40.1 µg/mL (≈ 128 µM). The EC50 with Brassica napus L. (setting [5]) came out at 22.3 µg/mL (≈ 71.4 µM).
On to `CCCc1n[nH]c(O)c1CCP(=O)(O)O` [Compound 5c], for which the melting point was 228 to 229 °C. Also, the EC50 with Echinochloa crus-galli (setting [2]) stood at 76.3 µg/mL (≈ 326 µM). The EC50 in the data set on Echinochloa crus-galli (setting [3]) stood at 10.6 µg/mL (≈ 45.3 µM). For the same molecule, in data set [1], the inhibition at 100 µM came to 6.1%. Besides, in the data set with Arabidopsis thaliana, the EC50 was over 100 µg/mL and the pest or weed control at 100 µg/mL was 43.6%. Besides, the EC50 in the data set with Brassica napus L. (setting [4]) is over 100 µg/mL. Besides, in the data set on Brassica napus L. (setting [5]), the 50% effective concentration (EC50) turned out to be 48.2 µg/mL (≈ 206 µM).
Turning to `Cc1n[nH]c(C)c1CCP(=O)(O)O` [Compound 5e], the melting point was over 250 °C. In the data set with Echinochloa crus-galli (read-out: EC50 EC Root), the EC50 is over 100 µg/mL. Also, in the data set with Echinochloa crus-galli (read-out: EC50 EC Stalk), the EC50 came to 59.6 µg/mL (≈ 292 µM). Further, the inhibition at 100 µM in data set [1] is 23%. For the same molecule, in the data set with Arabidopsis thaliana, the 50% effective concentration (EC50) is over 100 µg/mL and the pest or weed control at 100 µg/mL was 15.8%. Further, the EC50 in the data set with Brassica napus L. (read-out: EC50 BN Root) is 63 µg/mL (≈ 309 µM). For the same molecule, the EC50 in the data set with Brassica napus L. (read-out: EC50 BN Stalk) was over 100 µg/mL.
`CCc1n[nH]c(O)c1CC(P(=O)(O)O)P(=O)(O)O` [Compound 12b] gave a melting point of over 250 °C. For the same molecule, in the data set with Echinochloa crus-galli (setting [2]), the EC50 is 77.5 µg/mL (≈ 258 µM). Also, the EC50 in the data set on Echinochloa crus-galli (setting [3]) stood at 55.3 µg/mL (≈ 184 µM). In addition, the inhibition at 100 µM in data set [1] was found to be 21.9%. In the data set with Arabidopsis thaliana, the EC50 was over 100 µg/mL and the pest or weed control at 100 µg/mL came to 29.6%. Moreover, the EC50 in the data set on Brassica napus L. (setting [4]) stood at 61.6 µg/mL (≈ 205 µM). Moreover, the EC50 with Brassica napus L. (setting [5]) is 24.5 µg/mL (≈ 81.6 µM).
The molecule `Cc1noc(C)c1CC(P(=O)(O)O)P(=O)(O)O` [Compound 13g] returned a melting point of over 250 °C. Moreover, the EC50 with Echinochloa crus-galli (setting [2]) was 79.8 µg/mL (≈ 280 µM). Further, in the data set with Echinochloa crus-galli (setting [3]), the 50% effective concentration (EC50) is 32.3 µg/mL (≈ 113 µM). Besides, in data set [1], the inhibition at 100 µM turned out to be 7.3%. Besides, in the data set on Arabidopsis thaliana, the EC50 is over 100 µg/mL and the pest or weed control at 100 µg/mL was 39.7%. The EC50 with Brassica napus L. (setting [4]) came out at 60.4 µg/mL (≈ 212 µM). Moreover, in the data set with Brassica napus L. (setting [5]), the EC50 was 41.5 µg/mL (≈ 146 µM).
`CCc1n[nH]c(O)c1CCP(=O)(O)O` [Compound 5b] displayed a melting point of 217 to 218 °C. In addition, in the data set with Echinochloa crus-galli (read-out: EC50 EC Root), the EC50 amounted to 86.7 µg/mL (≈ 394 µM). In addition, the EC50 in the data set with Echinochloa crus-galli (read-out: EC50 EC Stalk) came out at 92.2 µg/mL (≈ 419 µM). Besides, in data set [1], the inhibition at 100 µM was 12.9%. For the same molecule, in the data set on Arabidopsis thaliana, the EC50 is over 100 µg/mL and the pest or weed control at 100 µg/mL was found to be 26.5%. Also, the EC50 in the data set on Brassica napus L. (read-out: EC50 BN Root) was over 100 µg/mL. In addition, in the data set on Brassica napus L. (read-out: EC50 BN Stalk), the EC50 is over 100 µg/mL.
`CCc1onc(O)c1CC(P(=O)(O)O)P(=O)(O)O` [Compound 13b]: the EC50 in the data set with Echinochloa crus-galli (setting [2]) is 29.9 µg/mL (≈ 99.3 µM); with Echinochloa crus-galli (setting [3]), 35.3 µg/mL (≈ 117 µM); in the data set with Arabidopsis thaliana, 37.7 ± 2.8 µg/mL (≈ 125 µM); with Brassica napus L. (setting [4]) it was 38.8 µg/mL (≈ 129 µM); in the data set on Brassica napus L. (setting [5]) it was 20.2 µg/mL (≈ 67.1 µM). Also, the “Relative activity ratio (EC root)” value in the data set on Echinochloa crus-galli came to 1.3 fold. The “Relative activity ratio (EC stalk)” value with Echinochloa crus-galli was 1.1 fold. In addition, in data set [1], the inhibition at 100 µM came out at 27.4%. Also, the pest or weed control at 100 µg/mL with Arabidopsis thaliana turned out to be 100%. Moreover, the “Relative activity ratio (BN root)” value in the data set on Brassica napus L. turned out to be 0.9 fold. The “Relative activity ratio (BN stalk)” value in the data set on Brassica napus L. is listed as 1.6 fold.
In the case of `Cc1n[nH]c(C(F)(F)F)c1CC(P(=O)(O)O)P(=O)(O)O` [Compound 12i], the melting point was over 250 °C. Besides, in the data set with Echinochloa crus-galli (setting [2]), the EC50 worked out at 53.1 µg/mL (≈ 157 µM). The 50% effective concentration (EC50) in the data set on Echinochloa crus-galli (setting [3]) came out at 47.7 µg/mL (≈ 141 µM). In addition, in the data set on Echinochloa crus-galli, the “Relative activity ratio (EC root)” value amounted to 0.8 fold and the “Relative activity ratio (EC stalk)” value worked out at 0.8 fold. Further, the inhibition at 100 µM in data set [1] was found to be 27.1%. In addition, in the data set on Arabidopsis thaliana, the EC50 turned out to be 88.3 ± 4.3 µg/mL (≈ 261 µM) and the pest or weed control at 100 µg/mL is 55.8%. Moreover, in the data set on Brassica napus L. (setting [4]), the concentration for a half-maximal effect (EC50) came out at 36.6 µg/mL (≈ 108 µM). Also, the EC50 in the data set with Brassica napus L. (setting [5]) was 21.7 µg/mL (≈ 64.2 µM). In the data set on Brassica napus L., the “Relative activity ratio (BN root)” value came to 0.9 fold and the “Relative activity ratio (BN stalk)” value came to 1.5 fold.
On to `Cc1onc(C(F)(F)F)c1CC(P(=O)(O)O)P(=O)(O)O` [Compound 13i], for which the melting point was 240 to 241 °C. For the same molecule, in the data set on Echinochloa crus-galli (setting [2]), the EC50 stood at 32.1 µg/mL (≈ 94.7 µM). For the same molecule, in the data set on Echinochloa crus-galli (setting [3]), the EC50 came to 34.6 µg/mL (≈ 102 µM). Moreover, in the data set with Echinochloa crus-galli, the “Relative activity ratio (EC root)” value was 1.3 fold and the “Relative activity ratio (EC stalk)” value was 1.1 fold. In addition, the inhibition at 100 µM in data set [1] worked out at 30.3%. In the data set on Arabidopsis thaliana, the EC50 was determined as 40.7 ± 2.9 µg/mL (≈ 120 µM) and the pest or weed control at 100 µg/mL turned out to be 90.1%. For the same molecule, the EC50 with Brassica napus L. (setting [4]) turned out to be 40.5 µg/mL (≈ 119 µM). Besides, in the data set on Brassica napus L. (setting [5]), the EC50 amounted to 33.5 µg/mL (≈ 98.8 µM). Further, in the data set with Brassica napus L., the “Relative activity ratio (BN root)” value was 0.9 fold and the “Relative activity ratio (BN stalk)” value was 1.0 fold.

Source of the values: PMC10673511, “Design, Synthesis and Bioactivity Evaluation of Heterocycle-Containing Mono- and Bisphosphonic Acid Compounds” (Molecules, 2023).
